Laboratory results taken from patent US20210115104A1, “AMYLIN ANALOGUES” (Zealand Pharma A/S, priority 2015, published 2021).
pEC50: −log10 of the molar value. *1 amine or outer side, *2 acyl side, *3 side chain or, on linkers, in order; H or OH if unused. Where a SMILES comes first, the peptide text is derived from it. Bridges are numbered along the chain shown (N, C = ends). [ ]: non-standard residue; d: D form. The star is where a group is joined. C20 diacid = O=C(O)CCCCCCCCCCCCCCCCCCC(=O)*; γGlu = O=C(O)[C@H](CCC(=O)[*:2])N[*:1]; Hyp = O=C(O)[C@@H]1C[C@@H](O)CN1; NMeI = CC[C@H](C)[C@H](NC)C(=O)O; Orn = NCCC[C@H](N)C(=O)O; Sar = CNCC(=O)O

What was measured:
[1] = Assessment of physical stability (Thioflavin T fibrillation); format: physicochemical; design: key: FND = fibrillation not detected; FD = fibrillation detected; details: 1 mg/ml, 40° C., ThT; for Fibrillation pH 4.0 (Ac): 50 mM acetate buffer pH 4.0, 96 hours; for Fibrillation pH 7.0 (His): 50 mM histidine buffer pH 7.0, 96 hours; for Fibrillation pH 7.0 (Phos.): 50 mM phosphate buffer pH 7.0, 96 hours
Summary of the method: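 Fibrillation lag-time, in hours, taken where regressions of the initial stable phase and the growth phase intersect. ThT (40 μM) fluorescence monitored at 40 °C for 96 h, 10-min reads each preceded by 300 s mixing. Peptide at 1 mg/ml in 50 mM buffers: phosphate or histidine pH 7.0, acetate pH 4.0.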

[2] = biological target: T1, human calcitonin receptor (hCTR2) (Homo sapiens, UniProt P30988); experiment: hCTR2 cAMP assay (AlphaScreen) in COS7 cells; format: cell-based; details: cAMP induction, COS7 cells expressing hCTR2; Table 1; read-out: hCTR2 EC50
T1 construct: expressed in transfected cells
T1 sequence (P30988 25-474): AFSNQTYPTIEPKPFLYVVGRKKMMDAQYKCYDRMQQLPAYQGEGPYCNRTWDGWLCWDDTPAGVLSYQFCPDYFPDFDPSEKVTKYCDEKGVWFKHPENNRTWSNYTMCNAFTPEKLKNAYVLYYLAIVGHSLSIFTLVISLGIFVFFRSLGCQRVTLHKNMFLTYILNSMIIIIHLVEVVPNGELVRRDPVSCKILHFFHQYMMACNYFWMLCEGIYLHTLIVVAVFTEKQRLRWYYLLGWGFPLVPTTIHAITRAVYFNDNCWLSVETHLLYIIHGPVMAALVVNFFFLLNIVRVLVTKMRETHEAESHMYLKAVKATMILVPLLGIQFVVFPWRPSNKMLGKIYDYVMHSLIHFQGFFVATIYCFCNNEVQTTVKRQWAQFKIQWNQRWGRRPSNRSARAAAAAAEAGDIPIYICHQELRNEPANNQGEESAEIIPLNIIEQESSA
Summary of the method: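 cAMP induction, read by AlphaScreen after lysis, gives EC50 values via 4PL curve fitting. Peptides were applied at rising concentrations for 15 min at 37 °C, with IBMX and 0.1% casein in HEPES-buffered Tyrode pH 7.4, to COS7 cells (no endogenous RAMPs) stably expressing human CTR2.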

[3] = Assessment of chemical stability (RP-HPLC normalized purity); format: physicochemical; details: 7 days, 40° C., Table 1; for Normalized purity after 7 days, 40° C., pH 4: pH 4, 0.2 mg/ml; for Normalized purity after 7 days, 40° C., pH 6: pH 6, 0.2 mg/ml; for Normalized purity after 7 days, 40° C., pH 7.5: pH 7.5, 0.2 mg/ml; for Normalized purity after 7 days, 40° C., pH 9: pH 9, 0.2 mg/ml
Summary of the method: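 Purity after 7 days at 40° C is expressed relative to T=0 (set to 100) for each pH. Samples at 0.2 mg/ml, pH 4, 6, 7.5 or 9, analyzed by RP-HPLC with UV 220 nm on C8 (ammonium formate) or C18 (TFA) gradients.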

[4] = Pharmacokinetic (PK) profiling in rats; format: in vivo, rat; design: CI/F (apparent clearance values): unit not given here; details: Sprague Dawley male rats, single sc 30 nmol/kg
Protocol: Sprague Dawley male rats were given a single subcutaneous (sc) bolus of each peptide to be tested, as specified below. 30 nmol/kg doses of compound were administered. Blood samples were drawn from the tail vein prior to dosing and at 24, 48, 72, 96 and 168 hours after dosing. Blood samples were taken from two rats at each time point, and only 2 blood samples were drawn from each rat, i.e. […] were used for each compound. The rats were euthanized immediately after the last blood sampling by concussion and cervical dislocation.
The dosing vehicle used for each test peptide was a mannitol-containing histidine buffer (pH 7.0). Plasma samples were analyzed after precipitation with ethanol by liquid chromatography mass spectrometry (LC-MS/MS). Mean plasma concentrations were used for calculation of the pharmacokinetic parameters using the non-compartmental approach in Phoenix WinNonlin 6.3.
Plasma terminal elimination half-life (t1/2) was determined as ln(2)/λz, where λz is the magnitude of the slope of the log linear regression of the log concentration versus time profile during the terminal phase. Apparent clearance (CL/F) was determined as dose/AUCinf (sc), where AUCinf is the area under the plasma concentration vs. time curve extrapolated to infinity (AUCinf=AUClast+Clast/λz, where Clast is the last observed plasma concentration).

[5] = biological target: T2, human amylin receptor 3 (hAMYR3), hCTR2 co-expressed with hRAMP3 (Homo sapiens, UniProt O60896+P30988); experiment: hAMYR3 cAMP assay (AlphaScreen) in COS7 cells; format: cell-based; details: cAMP induction, COS7 cells expressing hAMYR3; Table 1; read-out: hAMYR3 EC50
T2 construct: expressed in transfected cells
T2 sequence (P30988 25-474): T1 sequence (P30988 25-474)
T2 sequence (O60896 24-148 partner): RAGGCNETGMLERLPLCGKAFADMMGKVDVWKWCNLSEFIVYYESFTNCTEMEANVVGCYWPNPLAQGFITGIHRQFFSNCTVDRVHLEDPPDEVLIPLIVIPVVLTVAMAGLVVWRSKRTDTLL
Summary of the method: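 EC50 values derive from 4PL curve fits of cAMP (AlphaScreen) in lysates of RAMP-naive COS7 cells stably carrying hCTR2 plus hRAMP3. Peptide dilution series were applied for 15 min at 37 °C in pH 7.4 Tyrode buffer containing 100 µM IBMX and 0.1% casein.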

Row | SMILES | Fibrillation pH 4.0 (Ac) [1] | Fibrillation pH 7.0 (His) [1] | Fibrillation pH 7.0 (Phos.) [1] | pEC50 [2] | Normalized purity after 7 days, 40° C., pH 4 [3] | Normalized purity after 7 days, 40° C., pH 6 [3] | Normalized purity after 7 days, 40° C., pH 7.5 [3] | Normalized purity after 7 days, 40° C., pH 9 [3] | CI/F (apparent clearance values) [4] | pEC50 [5]
1 | CC[C@H](C)[C@@H](C(=O)N[C@@H](CC(C)C)C(=O)N[C@@H](CO)C(=O)N[C@@H](CO)C(=O)N[C@H](C(=O)N[C@@H](CCC(=O)O)C(=O)N[C@H](C(=O)NCC(=O)N[C@@H](CO)C(=O)N[C@@H](CO)C(=O)N[C@H](C(=O)N1C[C@H](O)C[C@H]1C(N)=O)[C@@H](C)O)C(C)C)[C@@H](C)O)N(C)C(=O)[C@H](C)NC(=O)CN(C)C(=O)[C@H](Cc1ccccc1)NC(=O)[C@H](CO)NC(=O)[C@H](CO)NC(=O)[C@H](CCCNC(=N)N)NC(=O)[C@@H](NC(=O)[C@H](CC(C)C)NC(=O)[C@H](Cc1ccccc1)NC(=O)[C@H](Cc1c[nH]cn1)NC(=O)[C@H](C)NC(=O)[C@H](CC(C)C)NC(=O)[C@H](CCCNC(=N)N)NC(=O)[C@H](CCC(=O)O)NC(=O)[C@@H](NC(=O)[C@H](C)NC(=O)[C@@H]1CSSC[C@H](NC(=O)[C@H](CCCNC(=N)N)NC(=O)CC[C@H](NC(=O)CCCCCCCCCCCCCCCCCCC(=O)O)C(=O)O)C(=O)NCC(=O)N[C@@H]([C@@H](C)O)C(=O)N[C@@H](C)C(=O)N[C@@H]([C@@H](C)O)C(=O)N1)[C@@H](C)O)[C@@H](C)O [Compound 9, [19CD]-isoGlu-R-C( )-GTAT-C( )-ATERLAHFLTRSSF-Gly(Me)-A-Ile(Me)-LSSTEVGSST-Hyp-NH2] ({C20 diacid-γGlu}-RCGTATCATERLAHFLTRSSF[Sar]A[NMeI]LSSTEVGSST[Hyp]-NH2; disulfide 2-7) | FND | FD | FD | 10.00 | A (A = >90%) | B (B = 70-90%) | B (B = 70-90%) | B (B = 70-90%) | 0.0096 | –
2 | CC[C@H](C)[C@@H](C(=O)N[C@@H](CC(C)C)C(=O)N[C@@H](CO)C(=O)N[C@@H](CO)C(=O)N[C@H](C(=O)N[C@@H](CCC(=O)O)C(=O)N[C@H](C(=O)NCC(=O)N[C@@H](CO)C(=O)N[C@@H](CCCN)C(=O)N[C@H](C(=O)N1C[C@H](O)C[C@H]1C(N)=O)[C@@H](C)O)C(C)C)[C@@H](C)O)N(C)C(=O)[C@H](C)NC(=O)CN(C)C(=O)[C@H](Cc1ccccc1)NC(=O)[C@H](CO)NC(=O)[C@H](CO)NC(=O)[C@H](CCCNC(=N)N)NC(=O)[C@@H](NC(=O)[C@H](CC(C)C)NC(=O)[C@H](Cc1ccccc1)NC(=O)[C@H](Cc1c[nH]cn1)NC(=O)[C@H](C)NC(=O)[C@H](CC(C)C)NC(=O)[C@H](CCCNC(=N)N)NC(=O)[C@H](CCC(=O)O)NC(=O)[C@@H](NC(=O)[C@H](C)NC(=O)[C@@H]1CSSC[C@H](NC(=O)[C@H](CCCNC(=N)N)NC(=O)CC[C@H](NC(=O)CCCCCCCCCCCCCCCCCCC(=O)O)C(=O)O)C(=O)NCC(=O)N[C@@H]([C@@H](C)O)C(=O)N[C@@H](C)C(=O)N[C@@H]([C@@H](C)O)C(=O)N1)[C@@H](C)O)[C@@H](C)O [Compound 11, [19CD]-isoGlu-R-C( )-GTAT-C( )-ATERLAHFLTRSSF-Gly(Me)-A-Ile(Me)-LSSTEVGS-Orn-T-Hyp-NH2] ({C20 diacid-γGlu}-RCGTATCATERLAHFLTRSSF[Sar]A[NMeI]LSSTEVGS[Orn]T[Hyp]-NH2; disulfide 2-7) | FND | FD | FD | – | A (A = >90%) | B (B = 70-90%) | A (A = >90%) | B (B = 70-90%) | 0.0118 | 9.70
3 | CC[C@H](C)[C@@H](C(=O)N[C@@H](CC(C)C)C(=O)N[C@@H](CO)C(=O)N[C@@H](CO)C(=O)N[C@H](C(=O)N[C@@H](CCC(=O)O)C(=O)N[C@H](C(=O)NCC(=O)N[C@@H](CO)C(=O)NCC(=O)N[C@H](C(=O)N1C[C@H](O)C[C@H]1C(N)=O)[C@@H](C)O)C(C)C)[C@@H](C)O)N(C)C(=O)[C@H](C)NC(=O)CN(C)C(=O)[C@H](Cc1ccccc1)NC(=O)[C@H](CO)NC(=O)[C@H](CO)NC(=O)[C@H](CCCNC(=N)N)NC(=O)[C@H](CCC(N)=O)NC(=O)[C@H](CC(C)C)NC(=O)[C@H](Cc1ccccc1)NC(=O)[C@H](Cc1c[nH]cn1)NC(=O)[C@H](C)NC(=O)[C@H](CC(C)C)NC(=O)[C@H](CCCNC(=N)N)NC(=O)[C@H](CC(=O)O)NC(=O)[C@@H](NC(=O)[C@H](C)NC(=O)[C@@H]1CSSC[C@H](NC(=O)[C@H](CCCNC(=N)N)NC(=O)CC[C@H](NC(=O)CCCCCCCCCCCCCCCCCCC(=O)O)C(=O)O)C(=O)N[C@@H](CCC(N)=O)C(=O)N[C@@H]([C@@H](C)O)C(=O)N[C@@H](C)C(=O)N[C@@H]([C@@H](C)O)C(=O)N1)[C@@H](C)O [Compound 91, [19CD]-isoGlu-R-C( )-QTAT-C( )-ATDRLAHFLQRSSF-Gly(Me)-A-Ile(Me)-LSSTEVGSGT-Hyp-NH2] ({C20 diacid-γGlu}-RCQTATCATDRLAHFLQRSSF[Sar]A[NMeI]LSSTEVGSGT[Hyp]-NH2; disulfide 2-7) | FND | FND | FND | 10.10 | A (A = >90%) | A (A = >90%) | A (A = >90%) | A (A = >90%) | – | 9.77
4 | CC[C@H](C)[C@@H](C(=O)N[C@@H](CC(C)C)C(=O)N[C@@H](CO)C(=O)N[C@@H](CO)C(=O)N[C@H](C(=O)N[C@@H](CCC(=O)O)C(=O)N[C@H](C(=O)NCC(=O)N[C@@H](CO)C(=O)N[C@@H](CC(N)=O)C(=O)N[C@H](C(=O)N1CCC[C@H]1C(N)=O)[C@@H](C)O)C(C)C)[C@@H](C)O)N(C)C(=O)[C@H](C)NC(=O)CN(C)C(=O)[C@H](Cc1ccccc1)NC(=O)[C@H](CCCNC(=N)N)NC(=O)[C@H](CCC(N)=O)NC(=O)[C@H](CC(C)C)NC(=O)[C@H](Cc1ccccc1)NC(=O)[C@H](Cc1c[nH]cn1)NC(=O)[C@H](C)NC(=O)[C@H](CC(C)C)NC(=O)[C@H](CCCNC(=N)N)NC(=O)[C@H](CCC(=O)O)NC(=O)[C@@H](NC(=O)[C@H](C)NC(=O)[C@@H]1CSSC[C@H](NC(=O)[C@H](CCCNC(=N)N)NC(=O)CC[C@H](NC(=O)CCCCCCCCCCCCCCCCCCC(=O)O)C(=O)O)C(=O)N[C@@H](CCC(N)=O)C(=O)N[C@@H]([C@@H](C)O)C(=O)N[C@@H](C)C(=O)N[C@@H]([C@@H](C)O)C(=O)N1)[C@@H](C)O [Compound 96, [19CD]-isoGlu-R-C( )-QTAT-C( )-ATERLAHFLQRF-Gly(Me)-A-Ile(Me)-LSSTEVGSNTP-NH2] ({C20 diacid-γGlu}-RCQTATCATERLAHFLQRF[Sar]A[NMeI]LSSTEVGSNTP-NH2; disulfide 2-7) | FND | FND | FND | 9.48 | A (A = >90%) | A (A = >90%) | A (A = >90%) | A (A = >90%) | – | 9.55
